Results reported in PubChem BioAssay (NCI).
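Five concentrations, 48 hours, 96-well plates. Abbreviation: GI50, concentration required for 50% inhibition of growth. TGI is the concentration that stops growth completely.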

system: HL-60(TB) leukemia; experiment: DTP human tumour cell line panel, 48 h

Row | Structure (SMILES) | TGI [µM] | GI50 [µM]
1 | CC1(C)CC(=O)CC(=Nc2ccc([N+](=O)[O-])cc2)C1 | > 100 | –
2 | Oc1ccc2ccccc2c1N=Nc1ccc(Br)cc1 | > 100 | –
3 | COc1cc2c3c(c1OC)-c1cc4c(cc1CC3(C#N)N(C(=O)c1ccccc1)CC2)OCO4 (stereo not given) | > 100 | –
4 | CCOC(=O)c1c(-c2ccc(OC)cc2)c(C#N)c2c(C#N)c(N)nn2c1N | > 100 | 3.33
5 | COC(=O)C1=CN(CC2=CC(=O)C(C)=CC2=O)C=C(C(=O)OC)C1c1cccc(OC)c1 | > 100 | 4.76

system: SN12C renal; experiment: DTP human tumour cell line panel, 48 h

Row | Structure (SMILES) | TGI [µM] | GI50 [µM]
6 | CC1(C)CC(=O)CC(=Nc2ccc([N+](=O)[O-])cc2)C1 | > 100 | –
7 | Oc1ccc2ccccc2c1N=Nc1ccc(Br)cc1 | > 100 | –
8 | COc1cc2c3c(c1OC)-c1cc4c(cc1CC3(C#N)N(C(=O)c1ccccc1)CC2)OCO4 (stereo not given) | > 100 | –
9 | CCOC(=O)c1c(-c2ccc(OC)cc2)c(C#N)c2c(C#N)c(N)nn2c1N | 49 | 4
10 | COC(=O)C1=CN(CC2=CC(=O)C(C)=CC2=O)C=C(C(=O)OC)C1c1cccc(OC)c1 | > 60.5 | 22.9

system: COLO 205 colon; experiment: DTP human tumour cell line panel, 48 h

Row | Structure (SMILES) | TGI [µM] | GI50 [µM]
11 | CC1(C)CC(=O)CC(=Nc2ccc([N+](=O)[O-])cc2)C1 | > 100 | –
12 | Oc1ccc2ccccc2c1N=Nc1ccc(Br)cc1 | > 100 | –
13 | COc1cc2c3c(c1OC)-c1cc4c(cc1CC3(C#N)N(C(=O)c1ccccc1)CC2)OCO4 (stereo not given) | > 100 | –
14 | CCOC(=O)c1c(-c2ccc(OC)cc2)c(C#N)c2c(C#N)c(N)nn2c1N | 9.98 | 2.8
15 | COC(=O)C1=CN(CC2=CC(=O)C(C)=CC2=O)C=C(C(=O)OC)C1c1cccc(OC)c1 | > 66.6 | 18.4

system: SF-295 CNS; experiment: DTP human tumour cell line panel, 48 h

Row | Structure (SMILES) | TGI [µM] | GI50 [µM]
16 | CC1(C)CC(=O)CC(=Nc2ccc([N+](=O)[O-])cc2)C1 | > 100 | –
17 | Oc1ccc2ccccc2c1N=Nc1ccc(Br)cc1 | > 100 | –
18 | COc1cc2c3c(c1OC)-c1cc4c(cc1CC3(C#N)N(C(=O)c1ccccc1)CC2)OCO4 (stereo not given) | 58.7 | –
19 | CCOC(=O)c1c(-c2ccc(OC)cc2)c(C#N)c2c(C#N)c(N)nn2c1N | 32.9 | 2.98
20 | COC(=O)C1=CN(CC2=CC(=O)C(C)=CC2=O)C=C(C(=O)OC)C1c1cccc(OC)c1 | 26.4 | 10.3

system: UACC-62 melanoma; experiment: DTP human tumour cell line panel, 48 h

Row | Structure (SMILES) | TGI [µM] | GI50 [µM]
21 | CC1(C)CC(=O)CC(=Nc2ccc([N+](=O)[O-])cc2)C1 | > 100 | –
22 | Oc1ccc2ccccc2c1N=Nc1ccc(Br)cc1 | > 100 | –
23 | COc1cc2c3c(c1OC)-c1cc4c(cc1CC3(C#N)N(C(=O)c1ccccc1)CC2)OCO4 (stereo not given) | 43.2 | –
24 | CCOC(=O)c1c(-c2ccc(OC)cc2)c(C#N)c2c(C#N)c(N)nn2c1N | 15.2 | 2.47
25 | COC(=O)C1=CN(CC2=CC(=O)C(C)=CC2=O)C=C(C(=O)OC)C1c1cccc(OC)c1 | 29.4 | 13.6

system: U251 CNS; experiment: DTP human tumour cell line panel, 48 h

Row | Structure (SMILES) | TGI [µM] | GI50 [µM]
26 | CC1(C)CC(=O)CC(=Nc2ccc([N+](=O)[O-])cc2)C1 | 31.7 | –
27 | Oc1ccc2ccccc2c1N=Nc1ccc(Br)cc1 | > 100 | –
28 | COc1cc2c3c(c1OC)-c1cc4c(cc1CC3(C#N)N(C(=O)c1ccccc1)CC2)OCO4 (stereo not given) | 53.5 | –
29 | CCOC(=O)c1c(-c2ccc(OC)cc2)c(C#N)c2c(C#N)c(N)nn2c1N | 23.7 | 4.19
30 | COC(=O)C1=CN(CC2=CC(=O)C(C)=CC2=O)C=C(C(=O)OC)C1c1cccc(OC)c1 | 30.5 | 8.47

system: EKVX NSCLC; experiment: DTP human tumour cell line panel, 48 h

Row | Structure (SMILES) | TGI [µM] | GI50 [µM]
31 | CC1(C)CC(=O)CC(=Nc2ccc([N+](=O)[O-])cc2)C1 | > 100 | –
32 | Oc1ccc2ccccc2c1N=Nc1ccc(Br)cc1 | > 100 | –
33 | COc1cc2c3c(c1OC)-c1cc4c(cc1CC3(C#N)N(C(=O)c1ccccc1)CC2)OCO4 (stereo not given) | > 100 | –
34 | CCOC(=O)c1c(-c2ccc(OC)cc2)c(C#N)c2c(C#N)c(N)nn2c1N | > 100 | 4.8
35 | COC(=O)C1=CN(CC2=CC(=O)C(C)=CC2=O)C=C(C(=O)OC)C1c1cccc(OC)c1 | 27.2 | 12.2

system: RPMI-8226 leukemia; experiment: DTP human tumour cell line panel, 48 h

Row | Structure (SMILES) | TGI [µM] | GI50 [µM]
36 | CC1(C)CC(=O)CC(=Nc2ccc([N+](=O)[O-])cc2)C1 | > 100 | –
37 | Oc1ccc2ccccc2c1N=Nc1ccc(Br)cc1 | > 100 | –
38 | COc1cc2c3c(c1OC)-c1cc4c(cc1CC3(C#N)N(C(=O)c1ccccc1)CC2)OCO4 (stereo not given) | > 100 | –
39 | CCOC(=O)c1c(-c2ccc(OC)cc2)c(C#N)c2c(C#N)c(N)nn2c1N | > 100 | 2.31
40 | COC(=O)C1=CN(CC2=CC(=O)C(C)=CC2=O)C=C(C(=O)OC)C1c1cccc(OC)c1 | 5.06 | 1.95

system: CCRF-CEM leukemia; experiment: DTP human tumour cell line panel, 48 h

Row | Structure (SMILES) | TGI [µM] | GI50 [µM]
41 | CC1(C)CC(=O)CC(=Nc2ccc([N+](=O)[O-])cc2)C1 | 60.8 | –
42 | Oc1ccc2ccccc2c1N=Nc1ccc(Br)cc1 | > 100 | –
43 | COc1cc2c3c(c1OC)-c1cc4c(cc1CC3(C#N)N(C(=O)c1ccccc1)CC2)OCO4 (stereo not given) | > 100 | –
44 | CCOC(=O)c1c(-c2ccc(OC)cc2)c(C#N)c2c(C#N)c(N)nn2c1N | > 100 | 2.46
45 | COC(=O)C1=CN(CC2=CC(=O)C(C)=CC2=O)C=C(C(=O)OC)C1c1cccc(OC)c1 | > 21.9 | 2.38

system: IGROV1 ovarian; experiment: DTP human tumour cell line panel, 48 h

Row | Structure (SMILES) | TGI [µM] | GI50 [µM]
46 | CC1(C)CC(=O)CC(=Nc2ccc([N+](=O)[O-])cc2)C1 | > 100 | –
47 | Oc1ccc2ccccc2c1N=Nc1ccc(Br)cc1 | > 100 | –
48 | COc1cc2c3c(c1OC)-c1cc4c(cc1CC3(C#N)N(C(=O)c1ccccc1)CC2)OCO4 (stereo not given) | > 82.3 | –
49 | CCOC(=O)c1c(-c2ccc(OC)cc2)c(C#N)c2c(C#N)c(N)nn2c1N | > 100 | 3.48
50 | COC(=O)C1=CN(CC2=CC(=O)C(C)=CC2=O)C=C(C(=O)OC)C1c1cccc(OC)c1 | > 58.1 | 12.8
